Here are results for 13 compounds from patent US20090088461A1, “Methods of Treating or Preventing Cardiac Disease Associated With a High Fat Diet” (Synvista Therapeutics, Inc., priority 2007, published 2009).

Bounds are passed on as bounds.

cross-linking of glycated bovine serum albumin (AGE-BSA) to the rat tail tendon collagen-coated 96-well plate, sequence (P02769 25-607): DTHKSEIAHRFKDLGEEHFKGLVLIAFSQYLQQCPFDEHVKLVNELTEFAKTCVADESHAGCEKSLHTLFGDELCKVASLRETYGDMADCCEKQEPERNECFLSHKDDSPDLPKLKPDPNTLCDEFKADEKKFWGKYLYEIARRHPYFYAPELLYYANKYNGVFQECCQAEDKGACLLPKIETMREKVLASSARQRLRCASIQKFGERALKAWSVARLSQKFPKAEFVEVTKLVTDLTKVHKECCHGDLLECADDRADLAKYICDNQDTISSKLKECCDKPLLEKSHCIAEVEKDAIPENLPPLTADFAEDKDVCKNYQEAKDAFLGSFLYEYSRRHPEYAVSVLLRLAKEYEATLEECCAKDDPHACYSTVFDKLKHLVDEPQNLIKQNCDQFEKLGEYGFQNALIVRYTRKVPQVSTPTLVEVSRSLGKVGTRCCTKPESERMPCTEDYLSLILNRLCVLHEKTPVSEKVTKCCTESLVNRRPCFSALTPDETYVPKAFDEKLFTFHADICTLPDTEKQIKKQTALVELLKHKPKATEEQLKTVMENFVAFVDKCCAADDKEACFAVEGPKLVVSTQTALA

The target of one series is T1, AGE-BSA previously crosslinked to the collagen (Bos taurus, UniProt P02769).
T1 construct: Bovine Serum Albumin (Type V), (BSA) Calbiochem; purchased Calbiochem (BSA Type V); Collaborative Biomedical Products (Biocoat collagen plates)
T1 sequence (P02769 25-607): as above
T1 sequence (P02454 152-1207 partner limits assumed): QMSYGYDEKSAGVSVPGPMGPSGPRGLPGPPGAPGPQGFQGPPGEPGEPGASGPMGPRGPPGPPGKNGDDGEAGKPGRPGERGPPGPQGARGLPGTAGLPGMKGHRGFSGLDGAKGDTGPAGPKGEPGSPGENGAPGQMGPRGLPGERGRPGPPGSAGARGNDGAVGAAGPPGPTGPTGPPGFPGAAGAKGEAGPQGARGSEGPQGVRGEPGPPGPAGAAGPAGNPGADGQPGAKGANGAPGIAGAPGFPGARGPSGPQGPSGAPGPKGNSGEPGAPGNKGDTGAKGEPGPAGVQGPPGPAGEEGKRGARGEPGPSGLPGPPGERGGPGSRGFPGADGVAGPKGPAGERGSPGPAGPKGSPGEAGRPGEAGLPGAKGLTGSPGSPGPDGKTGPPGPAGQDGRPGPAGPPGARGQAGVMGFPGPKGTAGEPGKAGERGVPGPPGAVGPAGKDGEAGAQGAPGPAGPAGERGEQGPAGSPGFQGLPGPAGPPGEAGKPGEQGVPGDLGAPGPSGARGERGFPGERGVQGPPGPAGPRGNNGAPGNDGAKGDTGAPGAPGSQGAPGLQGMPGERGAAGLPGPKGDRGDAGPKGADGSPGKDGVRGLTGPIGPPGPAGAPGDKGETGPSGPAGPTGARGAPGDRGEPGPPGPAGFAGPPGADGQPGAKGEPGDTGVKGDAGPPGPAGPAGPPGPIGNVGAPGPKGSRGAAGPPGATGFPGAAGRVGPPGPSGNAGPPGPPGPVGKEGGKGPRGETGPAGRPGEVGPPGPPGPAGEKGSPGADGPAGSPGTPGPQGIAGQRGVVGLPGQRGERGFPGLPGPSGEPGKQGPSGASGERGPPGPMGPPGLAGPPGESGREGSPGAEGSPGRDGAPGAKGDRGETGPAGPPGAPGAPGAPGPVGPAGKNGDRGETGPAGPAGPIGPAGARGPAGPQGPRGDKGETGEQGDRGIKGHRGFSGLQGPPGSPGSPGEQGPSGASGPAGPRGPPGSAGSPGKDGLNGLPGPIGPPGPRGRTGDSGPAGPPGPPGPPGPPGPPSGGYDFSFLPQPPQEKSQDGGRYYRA
T1 sequence (P02466 86-1125 partner limits assumed): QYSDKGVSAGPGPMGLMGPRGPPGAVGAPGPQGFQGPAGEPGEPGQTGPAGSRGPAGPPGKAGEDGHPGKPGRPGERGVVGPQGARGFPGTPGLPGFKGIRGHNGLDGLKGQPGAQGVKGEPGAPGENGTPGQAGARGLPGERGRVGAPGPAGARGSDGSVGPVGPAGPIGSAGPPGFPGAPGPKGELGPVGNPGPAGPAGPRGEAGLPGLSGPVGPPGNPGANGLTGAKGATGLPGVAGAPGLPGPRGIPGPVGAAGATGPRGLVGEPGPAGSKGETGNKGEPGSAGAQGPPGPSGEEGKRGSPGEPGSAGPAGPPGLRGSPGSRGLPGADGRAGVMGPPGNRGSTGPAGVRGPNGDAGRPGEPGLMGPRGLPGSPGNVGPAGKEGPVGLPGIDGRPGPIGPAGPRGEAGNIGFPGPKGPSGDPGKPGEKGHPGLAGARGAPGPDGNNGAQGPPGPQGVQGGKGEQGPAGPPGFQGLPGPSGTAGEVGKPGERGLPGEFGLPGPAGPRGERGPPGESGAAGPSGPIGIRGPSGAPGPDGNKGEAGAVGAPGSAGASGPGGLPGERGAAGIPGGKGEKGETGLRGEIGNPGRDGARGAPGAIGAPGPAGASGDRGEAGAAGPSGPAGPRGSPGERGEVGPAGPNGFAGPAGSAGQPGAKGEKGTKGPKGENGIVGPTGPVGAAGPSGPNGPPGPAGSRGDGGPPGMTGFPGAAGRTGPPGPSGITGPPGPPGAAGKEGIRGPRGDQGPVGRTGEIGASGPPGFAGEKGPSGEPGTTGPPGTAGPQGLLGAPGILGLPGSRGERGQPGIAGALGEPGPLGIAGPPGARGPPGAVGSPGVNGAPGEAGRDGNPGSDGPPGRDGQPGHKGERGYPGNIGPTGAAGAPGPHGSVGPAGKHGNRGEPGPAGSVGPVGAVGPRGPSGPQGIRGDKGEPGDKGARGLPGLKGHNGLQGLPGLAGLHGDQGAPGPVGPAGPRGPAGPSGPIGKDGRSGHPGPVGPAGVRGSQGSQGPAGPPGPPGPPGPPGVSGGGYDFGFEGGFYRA
Put plainly: Cross-Link Breaking Assay (sandwich enzyme immunoassay). It counts as biochemical. Conditions: at 30 mM, anti-AGE antibody. As to the method: The present invention also involves a novel sandwich enzyme immunoassay used to ascertain the ability of test compounds to “break” or reverse already formed advanced glycosylation endproducts by detecting the breaking of AGE (Advanced glycosylation endproduct) moieties from AGE-crosslinked protein. This assay comprises:
a) incubation of AGE-modified bovine serum albumin (AGE BSA) on collagen-coated wells of microtiter plates for a period of 2-6 hours' at a temperature of 37° C.
b) washing of the wells with PBS-Tween;
c) application of the test compounds to the washed wells of step b;
d) incubation of the test compounds applied to the washed wells for an additional 12-24 hours at a temperature of about 37° C.; and
e) detection of the AGE-breaking using an antibody raised against AGE-ribonuclease or cross-link breaking with an antibody against BSA.
In order to ascertain the ability of the compounds of the instant invention to “break” or reverse already formed advanced glycosylation endproducts, a novel sandwich enzyme immunoassay was developed which detects breaking of AGE (Advanced glycosylation endproduct) moieties from AGE-crosslinked protein. The assay utilizes collagen-coated 96 well microtiter plates that are obtained commercially. […] Following an incubation period of 16 hours (37° C.) cross-link-breaking is detected using an antibody raised against AGE-ribonuclease or with an antibody against BSA. […] Details of the assay are as follows:
1. AGE-BSA stock solutions were prepared as follows. Sodium phosphate buffer (0.4 M) was prepared by dissolving 6 grams of monobasic sodium phosphate in 100 ml of distilled water, 7 grams of dibasic sodium phosphate (0.4 M) in 100 ml of distilled water and adjusting the pH of the dibasic solution to 7.4 with the monobasic solution. Sodium azide (0.02 grams) was added per 100 ml volume to inhibit bacterial growth. The BSA solution was prepared as follows: 400 mg of Type V BSA (bovine serum albumin) was added for each ml of sodium phosphate buffer (above). A 400 mM glucose solution was prepared by dissolving 7.2 grams of dextrose in 100 ml of sodium phosphate buffer (above). The BSA and glucose solutions were mixed 1:1 and incubated at 37° C. for 12 weeks. The pH of the incubation mixture was monitored weekly and adjusted to pH 7.4 if necessary. After 12 weeks, the AGE-BSA solution was dialyzed against PBS for 48 hours with four buffer changes, each at a 1:500 ratio of solution to dialysis buffer. Protein concentration was determined by the micro-Lowry method. The AGE-BSA stock solution was aliquoted and stored at −20° C.
2. Working solutions for crosslinking and breaking studies were prepared as follows. Test compounds were dissolved in PBS and the pH was adjusted to pH 7.4 if necessary. AGE-BSA stock solution was diluted in PBS to measure maximum crosslinking and in the inhibitor solution for testing inhibitory activity of compounds. The concentration of AGE-BSA necessary to achieve the optimum sensitivity was determined by initial titration of each lot of AGE-BSA.
3. Wash buffer (“PBS-Tween”) was, prepared as follows. PBS was prepared by dissolving the following salts in one liter of distilled water: NaCl, 8 grams; KCl, 0.2 gram, KH2PO4. […] Tween-20 was added to a final concentration of 0.05% (vol/vol).
4. Substrates for detection of secondary antibody binding were prepared by diluting the HRP substrate buffer 1:10 in distilled water and mixing with ABTS chromogen 1:50 just prior to use.
1. Biocoat plates were blocked with 300 μl of “Superbloc”. Plates were blocked for one hour at room temperature and were washed with PBS-Tween three times with the Dynatech platewasher before addition of test reagents.
2. Each experiment was set up in the following manner. The first three wells of the Biocoat plate were used for the reagent blank. Fifty microliters of solutions AGE-BSA were added to test wells in triplicate and only PBS in blank wells.
Regarding `COC(=O)C[n+]1csc2ccccc21.[Br-]` [3-(2-methoxy-2-oxoethyl)-benzothiazolium bromide], the “Breaking Anti-AGE” value came out at 66%.

Take `Cc1sc[n+](CC(=O)c2ccccc2)c1C.[Br-]` [3-(2-phenyl-2-oxoethyl)-4,5-dimethylthiazolium bromide]: the “Breaking Anti-AGE” value is on record as 56%/ND (30).

`Cc1c(CCO)sc[n+]1CC(=O)c1ccccc1.[Br-]` [3-(2-phenyl-2-oxoethyl)-4-methyl-5-(2-hydroxyethyl)-thiazolium bromide]: the “Breaking Anti-AGE” value is 67%.

With `Cc1csc[n+]1CC(=O)c1ccccc1.[Br-]` [3-(2-phenyl-2-oxoethyl)-4-methylthiazolium bromide], the “Breaking Anti-AGE” value was 68%.

For the compound `O=C(O)C[n+]1csc2ccccc21.[Br-]` [3-(carboxymethyl)-benzothiazolium bromide], the “Breaking Anti-AGE” value stood at 63.7%.

The same series, now with this note: at 30 mM, anti-BSA antibody.
Regarding `COC(=O)C[n+]1csc2ccccc21.[Br-]` [3-(2-methoxy-2-oxoethyl)-benzothiazolium bromide], the “Breaking Anti-BSA” value turned out to be 37%.

Regarding `Cc1c(CCO)sc[n+]1CC(=O)c1ccccc1.[Br-]` [3-(2-phenyl-2-oxoethyl)-4-methyl-5-(2-hydroxyethyl)-thiazolium bromide], the “Breaking Anti-BSA” value is reported as 13%.

For the compound `Cc1csc[n+]1CC(=O)c1ccccc1.[Br-]` [3-(2-phenyl-2-oxoethyl)-4-methylthiazolium bromide], the “Breaking Anti-BSA” value is reported as 66%.

Take `O=C(O)C[n+]1csc2ccccc21.[Br-]` [3-(carboxymethyl)-benzothiazolium bromide]: the “Breaking Anti-BSA” value was determined as 17.9%.

The same series, now with this note: concentration not given, anti-AGE antibody.
As for `Cc1c(CCO)sc[n+]1CC(N)=O.[Br-]` [3-(2-amino-2-oxoethyl)-4-methyl-5-(2-hydroxyethyl)thiazolium bromide], the “Breaking Anti-AGE” value was found to be 65%.

For the compound `NC(=O)C[n+]1csc2ccccc21.[Br-]` [3-(2-amino-2-oxoethyl)-benzothiazolium bromide], the “Breaking Anti-AGE” value came to 77%.

Staying with this series, now noted: concentration not given, anti-BSA antibody.
Take `Cc1c(CCO)sc[n+]1CC(N)=O.[Br-]` [3-(2-amino-2-oxoethyl)-4-methyl-5-(2-hydroxyethyl)thiazolium bromide]: the “Breaking Anti-BSA” value came out at 57%.

Take `NC(=O)C[n+]1csc2ccccc21.[Br-]` [3-(2-amino-2-oxoethyl)-benzothiazolium bromide]: the “Breaking Anti-BSA” value came to 65%.

Still in this series, the particulars now being: detection with anti-AGE antibody; read-out: IC50 (mM) Anti-AGE.
Consider `NC(=O)C[n+]1csc2ccccc21.[Br-]` [3-(2-amino-2-oxoethyl)-benzothiazolium bromide], for which the 50% inhibitory concentration (IC50) amounted to 0.4 mM.

Another series addresses cross-linking of glycated bovine serum albumin (AGE-BSA) to the rat tail tendon collagen-coated 96-well plate (Bos taurus, UniProt P02769). Put plainly: Cross-Linking Inhibition Assay.
Conditions: not given
Turning to `Cc1sc[n+](CC(=O)c2cc(C(C)(C)C)c(O)c(C(C)(C)C)c2)c1C` [3-(2-(3′,5′-di-tert-butyl-4′-hydroxypheny].)-2-oxoethyl]-4,5-dimethyl-thiazolium bromide], the IC50 came to 160 µM.

For `Cc1c(CCO)sc[n+]1CC(=O)c1ccc(Br)cc1` [3-(2-(41-bromophenyl]-2-oxoethyl)-4-methyl-5-(2-hydroxyethyl)thiazolium bromide], the midpoint of inhibition, the IC50, lay at 2950 µM.

Consider `Cc1c(CCO)sc[n+]1CC(N)=O.[Br-]` [3-(2-amino-2-oxoethyl)-4-methyl-5-(2-hydroxyethyl)thiazolium bromide], for which half-maximal inhibition (IC50) was put at 1420 µM.

The compound `NC(=O)C[n+]1csc2ccccc21.[Br-]` [3-(2-amino-2-oxoethyl)-benzothiazolium bromide] gave an IC50 of 20 µM.

In turn, `NC(=O)C[n+]1ccsc1` [3-(2-amino-2-oxoethyl)-thiazolium bromide] yielded a half-maximal inhibitory concentration (IC50) of 530 µM.

In the case of `COC(=O)C[n+]1csc2ccccc21.[Br-]` [3-(2-methoxy-2-oxoethyl)-benzothiazolium bromide], the 50% inhibitory concentration (IC50) was over 10000 µM.

For the compound `Cc1c(CCO)sc[n+]1CC(=O)c1ccccc1.[Br-]` [3-(2-phenyl-2-oxoethyl)-4-methyl-5-(2-hydroxyethyl)-thiazolium bromide], the IC50 was over 10000 µM.

Compound `Cc1csc[n+]1CC(=O)c1ccccc1.[Br-]` [3-(2-phenyl-2-oxoethyl)-4-methylthiazolium bromide] returned an IC50 of 5600 µM.

In the case of `Cc1c[n+](CC(=O)c2ccccc2)cs1` [3-(2-phenyl-2-oxoethyl)-5-methyl-thiazolium bromide], the concentration for half-maximal inhibition (IC50) was found to be 12600 µM.

Staying with this series, now noted: 3 mM.
With `CCCCCc1ccc(C(=O)C[n+]2csc(CCO)c2C)cc1.[Br-]` [3-(2-(4′-n-pentylphenyl)-2-oxoethyl]-4-methyl-5-(2′-hydroxyethyl)-thiazolinium], the “Relative Cross-link Inhibition” value came to 52% @ 3 mM.

The series is the same for the next values; noted with them: read-out: Relative Cross-link Inhibition (at 10 mM).
As to `COC(=O)C[n+]1csc(CCO)c1C` [3-(2-methoxy-2-oxoethyl)-4-methyl-5-(2-hydroxyethyl)-thiazolium bromide], the inhibition at 10000 µM came out at 38%.

For `COC(=O)C[n+]1csc2ccccc21.[Br-]` [3-(2-methoxy-2-oxoethyl)-benzothiazolium bromide], the inhibition at 10000 µM came out at 35%.

`Cc1sc[n+](CC(=O)c2ccccc2)c1C.[Br-]` [3-(2-phenyl-2-oxoethyl)-4,5-dimethylthiazolium bromide]: the inhibition at 10000 µM was found to be 37%.

As for `Cc1c(CCO)sc[n+]1CC(=O)c1ccccc1.[Br-]` [3-(2-phenyl-2-oxoethyl)-4-methyl-5-(2-hydroxyethyl)-thiazolium bromide], the inhibition at 10000 µM is 36%.

Consider `O=C(O)C[n+]1csc2ccccc21.[Br-]` [3-(carboxymethyl)-benzothiazolium bromide], for which the inhibition at 10000 µM is 16%.

The IC50 is the concentration that gives 50% inhibition. Broadly, the inhibition is the percentage by which the read-out fell short of the control.
